The source of these data is US20220267331A1, “DOPAMINE-B-HYDROXYLASE INHIBITORS” (BIAL - PORTELA & CA, S.A., priority 2019, published 2022).

Structures can show the parent of a compound that is named as a salt.

The target of the experiment is T1, DβH (Homo sapiens, UniProt P09172).
T1 construct: 125 μL of plasma (or saline for blank reaction or standard curve); tissue Instituto Português do Sangue Transplantação, Centro Sangue Transplantação, Porto, Portugal; host or cells: human plasma from healthy donors
T1 sequence (P09172 40-617 limits assumed): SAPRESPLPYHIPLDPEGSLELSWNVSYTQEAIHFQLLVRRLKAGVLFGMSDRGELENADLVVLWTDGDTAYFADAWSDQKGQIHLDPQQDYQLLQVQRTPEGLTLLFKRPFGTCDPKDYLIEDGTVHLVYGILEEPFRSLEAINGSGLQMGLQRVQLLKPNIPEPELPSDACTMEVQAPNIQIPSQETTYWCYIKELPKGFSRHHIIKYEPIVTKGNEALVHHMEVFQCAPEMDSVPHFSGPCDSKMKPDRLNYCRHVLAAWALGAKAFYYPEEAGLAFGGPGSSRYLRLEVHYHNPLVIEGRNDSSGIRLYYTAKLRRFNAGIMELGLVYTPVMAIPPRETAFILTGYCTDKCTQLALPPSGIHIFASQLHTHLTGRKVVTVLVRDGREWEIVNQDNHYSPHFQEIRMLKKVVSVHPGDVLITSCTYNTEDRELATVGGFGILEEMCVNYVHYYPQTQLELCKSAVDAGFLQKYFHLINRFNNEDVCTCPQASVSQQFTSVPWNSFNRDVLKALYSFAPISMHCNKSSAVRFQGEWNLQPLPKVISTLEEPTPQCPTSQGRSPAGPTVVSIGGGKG
The experiment in a line: Dopamine-β-hydroxylase inhibition assay in human plasma. In kind it is biochemical. The settings on record: for DβH (0.01 μM) / remaining activity at 0.01 µM: DβH activity in human plasma at 0.01 μM inhibitor; for DβH (0.1 μM) / remaining activity at 0.1 µM: DβH activity in human plasma at 0.1 μM inhibitor; for IC50: human plasma, curve fitting of 6 concentrations (100 nM to 0.3 nM). The procedure: The ability of a compound to inhibit DβH activity may be assessed in human plasma using the following assay.
Dopamine beta hydroxylase activity in human plasma was measured by the method of Nagatsu and Udenfriend (Nagatsu, T. and Udenfriend, S. “Photometric assay of dopamine-p-hydroxylase activity in human blood.” Clin. Chem. 18(9) 980-983, 1972) with minor modifications. Catalase, N-ethylmaleimide, tyramine, disodium fumarate, pargyline, sodium acetate, ascorbic acid, copper sulfate and octopamine were obtained from Sigma Chemical Co., St. Louis, Mo. 63178. Human plasma samples were obtained from healthy donors (Instituto Português do Sangue Transplantação, Centro Sangue Transplantação, Porto, Portugal). From date of collection, plasma was stored at −80° C. until use. Test compounds were initially prepared in dimethyl sulfoxide at a concentration of 10 mM and diluted in dimethyl sulfoxide to the required concentrations. Test compounds were further diluted in ultrapure water to a concentration 20-fold to that of the final concentration to be tested. Final concentrations of test compounds were 10 and 100 nM. The various reagents used to make up the incubation buffer were premixed and consisted of the following components: sodium acetate buffer (1 M, pH 5.0, 18 mL), sodium fumarate (0.2 M, 4.5 mL), ascorbic acid (0.2 M, 4.5 ml, freshly prepared), pargyline (20 mM, freshly prepared, 4.5 mL), N-ethylmaleimide (0.2 M, 4.5 mL), catalase (10 000 U/mL, 9 mL), copper sulfate (20 μM, 4.5 mL) and 4.5 ultrapure water. The standard incubation mixture (total volume, 950 μL) contained: 50 μL of compound or vehicle (dimethyl sulfoxide 2%); 700 μL of incubation buffer; 125 μL of plasma (or saline for blank reaction or standard curve); 75 μL of saline. The reaction mixture was placed in water bath, shaking at 37° C. and pre-incubated for 10 minutes. Tyramine (0.5 M) was added and incubation proceeded for 45 minutes. The reaction contents were exposed to air. A sample of enzyme preparation (with 125 μL of plasma) that had been added perchloric acid 2 M at the end of the pre-incubation period was used as blank. A blank for each of the tested compounds was used. For octopamine standard curve, perchloric acid 2 M was replaced by increasing concentrations of octopamine prepared in perchloric acid 2 M (0.5, 1, 2.5, 5, 7.5, 10, 15, 20 μg/mL, final concentration). The incubation was stopped by adding 200 μL of 2 M molar perchloric acid, and the mixture was centrifuged at 9000 g for 5 min. The supernatant fluid (800 μL) was transferred to a column (SPE cartridge ISOLUTE SCX-3, 100 mg) and centrifuged at 150 g for 2 min. The column was washed two more times with 0.5 ml of ultrapure water by centrifuging at 150 g for 2 min. The adsorbed octopamine was eluted twice with 0.3 mL of 4 M ammonium hydroxide by centrifuging at 150 g for 2 min. Octopamine in the eluate was then converted to p-hydroxybenzaldehyde by adding 200 μL of sodium periodate (2%) and incubating for 6 min. Excess periodate was than reduced by adding 200 μL of sodium metabisulfite (10%). Absorbance was measured at […] in a 96-well plate by use of a SpectraMAX plus 384 (Molecular Devices) with software SOFTmax® PRO Software 5.3 spectrophotometer. Absorbance was linear with octopamine concentration from 0.5 to 20 μg/mL. Dopamine beta hydroxylase activity is determined as nmol of octopamine formed/mL of plasma/hour and effect of compounds is presented as % control. Results are reported in the table below as activity in % of control at the inhibitor concentration tested.
IC50 values of selected compounds were calculated based on curve fitting of results of 6 different compound concentrations (100 nM to 0.3 nM). IC50 data are reported in nM concentration.

For `CN(CCCc1[nH]c(=S)n2c1C[C@H](c1c(F)ccc(F)c1F)C2)C1CCOCC1.Cl` [Example 14, (R)-1-(3-(methyl(tetrahydro-2H-pyran-4-yl)amino)propyl)-6-(2,3,6-trifluorophenyl)-2,5,6,7-tetrahydro-3H-pyrrolo[1,2-c]imidazole-3-thione hydrochloride], the “DβH (0.01 μM)” value is 73.2 % of Control, the “DβH (0.1 μM)” value is on record as 19.0 % of Control and it took 33.1 nM to reach half-maximal inhibition (IC50).
Regarding `Cl.NCCCc1[nH]c(=S)n2c1C[C@H](c1c(F)ccc(F)c1F)C2` [Example 4, (R)-1-(3-aminopropyl)-6-(2,3,6-trifluorophenyl)-2,5,6,7-tetrahydro-3H-pyrrolo[1,2-c]imidazole-3-thione hydrochloride], the “DβH (0.01 μM)” value was 82.7 % of Control and the “DβH (0.1 μM)” value is given as 54.2 % of Control.
In the case of `Fc1ccc(Cl)c(F)c1[C@]12C[C@H]1c1c(CCCNC3CCOCC3)[nH]c(=S)n1C2` [Example 18, (5aS,6aR)-5a-(3-chloro-2,6-difluorophenyl)-1-(3-((tetrahydro-2H-pyran-4-yl)amino)propyl)-5,5a,6,6a-tetrahydrocyclopropa[3,4]pyrrolo[1,2-c]imidazole-3(2H)-thione], the remaining activity at 0.01 µM stood at 20.1%, the remaining activity at 0.1 µM stood at 1% and the half-maximal inhibitory concentration (IC50) worked out at 4 nM.
`Fc1ccc(F)c([C@H]2Cc3c(CCCN[C@H]4CCCOC4)[nH]c(=S)n3C2)c1F` [Example 9, (R)-1-(3-(((S)-tetrahydro-2H-pyran-3-yl)amino)propyl)-6-(2,3,6-trifluorophenyl)-2,5,6,7-tetrahydro-3H-pyrrolo[1,2-c]imidazole-3-thione] displayed a remaining activity at 0.01 µM of 48.1%, a remaining activity at 0.1 µM of 12.2% and an IC50 of 19.1 nM.
`Fc1ccc(Cl)cc1[C@]12C[C@H]1c1c(CCCN3CCOCC3)[nH]c(=S)n1C2` [Example 16, (5aS,6aR)-5a-(5-chloro-2-fluorophenyl)-1-(3-morpholinopropyl)-5,5a,6,6a-tetrahydrocyclopropa[3,4]pyrrolo[1,2-c]imidazole-3(2H)-thione] registered a remaining activity at 0.01 µM of 36.2%, a remaining activity at 0.1 µM of 3.3% and a half-inhibitory concentration (IC50) of 7.7 nM.
As for `Fc1ccc(F)c([C@H]2Cc3c(CCCNC4CCOCC4)[nH]c(=S)n3C2)c1F` [Example 5, (R)-1-(3-((tetrahydro-2H-pyran-4-yl)amino)propyl)-6-(2,3,6-trifluorophenyl)-2,5,6,7-tetrahydro-3H-pyrrolo[1,2-c]imidazole-3-thione], the remaining activity at 0.01 µM amounted to 42.5%, the remaining activity at 0.1 µM amounted to 5.4% and it took 12.7 nM to reach half-maximal inhibition (IC50).
For the compound `Fc1ccc(Cl)cc1[C@]12C[C@H]1c1c(CCCN3CCCC3)[nH]c(=S)n1C2` [Example 20, (5aS,6aR)-5a-(5-chloro-2-fluorophenyl)-1-(3-(pyrrolidin-1-yl)propyl)-5,5a,6,6a-tetrahydrocyclopropa[3,4]pyrrolo[1,2-c]imidazole-3(2H)-thione], the remaining activity at 0.01 µM is 53.4%, the remaining activity at 0.1 µM worked out at 9.1% and the concentration for half-maximal inhibition (IC50) was determined as 9.8 nM.
`NCCCc1[nH]c(=S)n2c1C[C@H](c1c(F)ccc(F)c1F)C2` [Example 2, (R)-1-(3-aminopropyl)-6-(2,3,6-trifluorophenyl)-2,5,6,7-tetrahydro-3H-pyrrolo[1,2-c]imidazole-3-thione] came in with a remaining activity at 0.01 µM of 98.4% and a remaining activity at 0.1 µM of 66.6%.
As for `CN(C)CCCc1[nH]c(=S)n2c1C[C@H](c1c(F)ccc(F)c1F)C2` [Example 8, (R)-1-(3-(dimethylamino)propyl)-6-(2,3,6-trifluorophenyl)-2,5,6,7-tetrahydro-3H-pyrrolo[1,2-c]imidazole-3-thione], the “DβH (0.01 μM)” value is listed as 113.4 % of Control and the remaining activity at 0.1 µM came to 52.8%.
As to `Fc1ccc(F)c([C@H]2Cc3c(CCCNCC4CCOCC4)[nH]c(=S)n3C2)c1F` [Example 3, (R)-1-(3-(((tetrahydro-2H-pyran-4-yl)methyl)amino)propyl)-6-(2,3,6-trifluorophenyl)-2,5,6,7-tetrahydro-3H-pyrrolo[1,2-c]imidazole-3-thione], the remaining activity at 0.01 µM stood at 57.3%, the remaining activity at 0.1 µM was found to be 15.5% and the IC50 came to 9.5 nM.
The like results for `Fc1ccc(Cl)c(F)c1[C@]12C[C@H]1c1c(CCCN3CCCC3)[nH]c(=S)n1C2` [Example 19, (5aS,6aR)-5a-(3-chloro-2,6-difluorophenyl)-1-(3-(pyrrolidin-1-yl)propyl)-5,5a,6,6a-tetrahydrocyclopropa[3,4]pyrrolo[1,2-c]imidazole-3(2H)-thione] were, in that order, 17%, 1% and 3 nM.
In the case of `Fc1ccc(Cl)c(F)c1[C@]12C[C@H]1c1c(CCCN[C@H]3CCCOC3)[nH]c(=S)n1C2` [Example 22, (5aS,6aR)-5a-(3-chloro-2,6-difluorophenyl)-1-(3-(((S)-tetrahydro-2H-pyran-3-yl)amino)propyl)-5,5a,6,6a-tetrahydrocyclopropa[3,4]pyrrolo[1,2-c]imidazole-3(2H)-thione], the remaining activity at 0.01 µM worked out at 23.5%, the remaining activity at 0.1 µM turned out to be 3.5% and the 50% inhibitory concentration (IC50) came to 4 nM.
Compound `Fc1ccc(Cl)cc1[C@]12C[C@H]1c1c(CCCNC3CCOCC3)[nH]c(=S)n1C2` [Example 17, (5aS,6aR)-5a-(5-chloro-2-fluorophenyl)-1-(3-((tetrahydro-2H-pyran-4-yl)amino)propyl)-5,5a,6,6a-tetrahydrocyclopropa[3,4]pyrrolo[1,2-c]imidazole-3(2H)-thione] yielded a remaining activity at 0.01 µM of 41.8%, a remaining activity at 0.1 µM of 3.9% and an IC50 of 9.9 nM.
On to `CN(CCCc1[nH]c(=S)n2c1C[C@H](c1c(F)ccc(F)c1F)C2)C1CCOC1` (stereo partly drawn) [Example 13, (6R)-1-(3-(methyl(tetrahydrofuran-3-yl)amino)propyl)-6-(2,3,6-trifluorophenyl)-2,5,6,7-tetrahydro-3H-pyrrolo[1,2-c]imidazole-3-thione hydrochloride], for which the remaining activity at 0.01 µM came out at 69.9%, the remaining activity at 0.1 µM is 29.3% and the IC50 was determined as 22.2 nM.
With `Cl.Fc1ccc(F)c([C@H]2Cc3c(CCCN4CC[C@@H](F)C4)[nH]c(=S)n3C2)c1F` [Example 7, (R)-1-(3-((R)-3-fluoropyrrolidin-1-yl)propyl)-6-(2,3,6-trifluorophenyl)-2,5,6,7-tetrahydro-3H-pyrrolo[1,2-c]imidazole-3-thione hydrochloride], the remaining activity at 0.01 µM worked out at 42.5%, the “DβH (0.1 μM)” value is recorded as 3.0 % of Control and the half-inhibitory concentration (IC50) stood at 8.3 nM.
